The values below come from PubChem BioAssay AID248 (DTP/NCI, 2004).

Values joined by “and” are separate entries in the source; they are usually repeats but may differ in a detail not shown here. Identical values can stand only once. Inconclusive results and toxic doses are left out.

In this experiment the test system is L1210 leukemia ip in BDF1 mice, survival T/C. Put plainly: NCI In Vivo Anticancer Drug Screen. Data for tumor model L1210 Leukemia (intraperitoneal) in B6D2F1 (BDF1) mice. The settings on record: endpoint: mean survival time, higher = longer survival. Summed up: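 Transplantable tumor model; survival measured in treated vs vehicle control mice. Value = treated/control.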

[1] abbreviates: dose: 100.0 mg/kg/injection, schedule: Q01DX009 (ip), vehicle: saline with Tween-80.
Where [2] appears, read: dose: 100.0 mg/kg/injection, schedule: Q04DX002 (ip), vehicle: saline with Tween-80.
[3] abbreviates: dose: 200.0 mg/kg/injection, schedule: Q01DX009 (ip), vehicle: saline with Tween-80.
[4] abbreviates: dose: 200.0 mg/kg/injection, schedule: Q04DX002 (ip), vehicle: saline with Tween-80.
[5] abbreviates: dose: 400.0 mg/kg/injection, schedule: Q01DX009 (ip), vehicle: saline with Tween-80.
Where [6] appears, read: dose: 400.0 mg/kg/injection, schedule: Q04DX002 (ip), vehicle: saline with Tween-80.
Setting [7] is: dose: 25.0 mg/kg/injection, schedule: Q01DX009 (ip), vehicle: saline.
Where [8] appears, read: dose: 50.0 mg/kg/injection, schedule: Q01DX009 (ip), vehicle: saline.
Where [9] appears, read: dose: 100.0 mg/kg/injection, schedule: Q01DX009 (ip), vehicle: saline.
Setting [10] is: dose: 100.0 mg/kg/injection, schedule: Q01DX001 (ip), vehicle: saline.
Setting [11] is: dose: 100.0 mg/kg/injection, schedule: Q04DX003 (ip), vehicle: saline.
[12] abbreviates: dose: 100.0 mg/kg/injection, schedule: Q01DX001 (ip), vehicle: saline with Tween-80.
Where [13] appears, read: dose: 100.0 mg/kg/injection, schedule: Q04DX003 (ip), vehicle: saline with Tween-80.
Where [14] appears, read: dose: 200.0 mg/kg/injection, schedule: Q01DX001 (ip), vehicle: saline with Tween-80.
[15] abbreviates: dose: 200.0 mg/kg/injection, schedule: Q04DX003 (ip), vehicle: saline with Tween-80.
Where [16] appears, read: dose: 200.0 mg/kg/injection, schedule: Q01DX001 (ip), vehicle: saline.

For the compound `CCOC(=O)C(CCC(C)C)C(C)=O` (configuration not stated), the T/C reads like this: under setting [1], 97 % of control; under setting [2], 101 % of control; under setting [3], 112 % of control; under setting [4], 97 % of control; under setting [5], 104 % of control; under setting [6], 101 % of control.

On to `N#CCc1nn(-c2ccccc2)c(N)c1C#N`, for which the T/C by setting is: (dose: 25.0 mg/kg/injection, schedule: Q01DX001 (ip), vehicle: Klucel (hydroxypropylcellulose) (HPC)) 93 % of control; (dose: 50.0 mg/kg/injection, schedule: Q01DX001 (ip), vehicle: Klucel (hydroxypropylcellulose) (HPC)) 100 % of control; (dose: 100.0 mg/kg/injection, schedule: Q01DX001 (ip), vehicle: Klucel (hydroxypropylcellulose) (HPC)) 107 % of control and 91 % of control; (dose: 150.0 mg/kg/injection, schedule: Q01DX001 (ip), vehicle: Klucel (hydroxypropylcellulose) (HPC)) 97 % of control.

For the compound `CCOC(=O)C(C)NC(=O)C(CSC(c1ccccc1)(c1ccccc1)c1ccccc1)NC(c1ccccc1)(c1ccccc1)c1ccccc1` (configuration not stated), the T/C was 98 % of control under setting [7]; 103 % of control under setting [8]; 92 % of control under setting [9]; 93 % of control (dose: 200.0 mg/kg/injection, schedule: Q01DX009 (ip), vehicle: saline); 98 % of control (dose: 400.0 mg/kg/injection, schedule: Q01DX009 (ip), vehicle: saline).

As to `C[n+]1ccc(Nc2ccc(NC(=O)c3ccc(Nc4cc[n+](C)c5ccc([N+](=O)[O-])cc45)cc3[N+](=O)[O-])cc2)cc1`, the T/C reads like this: (dose: 12.5 mg/kg/injection, schedule: Q01DX009 (ip), vehicle: saline) 112 % of control; (dose: 25.0 mg/kg/injection, schedule: Q01DX001 (ip), vehicle: saline) 105 % of control; under setting [7], 117 % of control; (dose: 25.0 mg/kg/injection, schedule: Q04DX003 (ip), vehicle: suspension in saline) 111 % of control; (dose: 50.0 mg/kg/injection, schedule: Q01DX001 (ip), vehicle: saline) 98 % of control; under setting [8], 120 % of control. Also, the T/C (dose: 50.0 mg/kg/injection, schedule: Q04DX003 (ip), vehicle: suspension in saline) was 116 % of control; the T/C under setting [10] is 105 % of control; the T/C (dose: 100.0 mg/kg/injection, schedule: Q01DX001 (ip), vehicle: suspension in saline) is 114 % of control; the T/C under setting [11] was 105 % of control and 104 % of control; the T/C (dose: 200.0 mg/kg/injection, schedule: Q04DX003 (ip), vehicle: saline) is 120 % of control and 123 % of control; the T/C (dose: 200.0 mg/kg/injection, schedule: Q04DX003 (ip), vehicle: suspension in saline) is 190 % of control and 203 % of control. The T/C is 173 % of control and 206 % of control (dose: 400.0 mg/kg/injection, schedule: Q01DX001 (ip), vehicle: suspension in saline); 90 % of control (dose: 400.0 mg/kg/injection, schedule: Q04DX003 (ip), vehicle: suspension in saline); 119 % of control (dose: 600.0 mg/kg/injection, schedule: Q04DX003 (ip), vehicle: saline); 102 % of control and 108 % of control (dose: 800.0 mg/kg/injection, schedule: Q04DX002 (ip), vehicle: saline).

For the compound `CC(C)COC(CN)C(Cl)(Cl)Cl` (configuration not stated), the T/C is 104 % of control (dose: 50.0 mg/kg/injection, schedule: Q01DX001 (ip), vehicle: saline with Tween-80); 94 % of control and 110 % of control (dose: 50.0 mg/kg/injection, schedule: Q01DX009 (ip), vehicle: saline with Tween-80); 100 % of control (dose: 50.0 mg/kg/injection, schedule: Q04DX003 (ip), vehicle: saline with Tween-80); 103 % of control under setting [12]; 97 % of control and 92 % of control under setting [1]; 103 % of control and 104 % of control under setting [2]. The T/C is 95 % of control under setting [13]; 97 % of control under setting [14]; 93 % of control and 99 % of control under setting [3]; 95 % of control and 101 % of control under setting [4]; 92 % of control under setting [15].

Consider `CCCCOC(=O)C1CCCC1=O` (configuration not stated), for which the T/C reads like this: under setting [1], 94 % of control; under setting [13], 97 % of control; under setting [3], 103 % of control; under setting [15], 94 % of control; under setting [5], 95 % of control; (dose: 400.0 mg/kg/injection, schedule: Q04DX003 (ip), vehicle: saline with Tween-80) 97 % of control.

For `CSc1nn[nH]n1`, the T/C runs as follows: (dose: 25.0 mg/kg/injection, schedule: Q01DX009 (ip), vehicle: acetone) 93 % of control; (dose: 50.0 mg/kg/injection, schedule: Q01DX009 (ip), vehicle: acetone) 96 % of control; (dose: 50.0 mg/kg/injection, schedule: Q04DX003 (ip), vehicle: saline) 92 % of control; (dose: 100.0 mg/kg/injection, schedule: Q01DX001 (ip), vehicle: acetone) 98 % of control; (dose: 100.0 mg/kg/injection, schedule: Q01DX009 (ip), vehicle: acetone) 91 % of control; under setting [11], 97 % of control. Moreover, for the setting “dose: 200.0 mg/kg/injection, schedule: Q01DX001 (ip), vehicle: acetone”, the T/C is 93 % of control.

Consider `O=Cc1ccc(-c2ccc([N+](=O)[O-])cc2)o1`, for which the T/C by setting is: under setting [12], 92 % of control; under setting [14], 94 % of control; (dose: 400.0 mg/kg/injection, schedule: Q01DX001 (ip), vehicle: saline with Tween-80) 103 % of control.

`CC1=NOC(=O)C12CC2`: the T/C by setting is: (dose: 75.0 mg/kg/injection, schedule: Q01DX001 (ip), vehicle: saline) 100 % of control; (dose: 150.0 mg/kg/injection, schedule: Q01DX001 (ip), vehicle: saline) 100 % of control; (dose: 300.0 mg/kg/injection, schedule: Q01DX001 (ip), vehicle: saline) 103 % of control.

As to `BrCCCCBr`, the T/C runs as follows: under setting [10], 103 % of control; under setting [16], 100 % of control; (dose: 400.0 mg/kg/injection, schedule: Q01DX001 (ip), vehicle: saline) 103 % of control.

As to `C/C=C(/Cl)C(=O)O`, the T/C is 100 % of control (dose: 5.0 mg/kg/injection, schedule: Q01DX001 (ip), vehicle: saline); 97 % of control (dose: 10.0 mg/kg/injection, schedule: Q01DX001 (ip), vehicle: saline); 97 % of control (dose: 20.0 mg/kg/injection, schedule: Q01DX001 (ip), vehicle: saline); 103 % of control (dose: 40.0 mg/kg/injection, schedule: Q01DX001 (ip), vehicle: saline); 103 % of control (dose: 80.0 mg/kg/injection, schedule: Q01DX001 (ip), vehicle: saline).

In the case of `CCOP(=O)(OCC)OC(C)CC` (configuration not stated), the T/C reads like this: under setting [2], 109 % of control; under setting [4], 103 % of control; under setting [6], 106 % of control.

With `Nc1nccnc1N`, the T/C is, setting by setting: under setting [8], 103 % of control; under setting [10], 102 % of control; under setting [9], 105 % of control; under setting [16], 96 % of control.

Take `O=C(Nc1cccc2ccccc12)c1ccccc1F`: the T/C by setting is: (dose: 100.0 mg/kg/injection, schedule: Q01DX009 (ip), vehicle: Klucel (hydroxypropylcellulose) (HPC)) 95 % of control; (dose: 200.0 mg/kg/injection, schedule: Q01DX009 (ip), vehicle: Klucel (hydroxypropylcellulose) (HPC)) 92 % of control; (dose: 400.0 mg/kg/injection, schedule: Q01DX009 (ip), vehicle: Klucel (hydroxypropylcellulose) (HPC)) 104 % of control.

In the case of `Cc1nccn1-c1ccc(N=Cc2ccc(N(CCCl)CCCl)cc2)cc1`, the T/C was 106 % of control (dose: 43.8 mg/kg/injection, schedule: Q04DX002 (ip), vehicle: Klucel (hydroxypropylcellulose) (HPC)); 106 % of control (dose: 87.5 mg/kg/injection, schedule: Q04DX002 (ip), vehicle: Klucel (hydroxypropylcellulose) (HPC)); 109 % of control (dose: 175.0 mg/kg/injection, schedule: Q04DX002 (ip), vehicle: Klucel (hydroxypropylcellulose) (HPC)).
